This passage reports EC50, IC50 and outcome results from PubChem BioAssay AID179 (DTP/NCI, 2004).

Calls of active or inactive are those of the source.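 Rule for the calls: active = compounds giving half or more protection of infected cells from virus-caused growth loss, again on retest; inactive = the rest.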

In this assay the test system is CEM cells HIV-1 protection, formazan growth assay. Put plainly: NCI AIDS Antiviral Assay. The note with it: for IC50: measured here: growth of uninfected CEM cells. The procedure, abridged:
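Protection of CEM cells against HIV-1 was scored from cell growth (soluble formazan) across five concentrations, with parallel uninfected cells. Lack of protection may reflect toxicity.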

Take `CCN(C(C)=O)c1cnc(/C=N/NC(N)=S)c2ccccc12`: the EC50 is above 200 µM and the IC50 amounted to 2.57 µM.
Turning to `OCCSCC/C(=N\N=C(/CCSCCO)c1ccccc1)c1ccccc1`, the EC50 was above 87.1 µM and the IC50 came out at 34.7 µM.
Regarding `O=C(Nc1ccc(F)cc1)Nc1ccc(Nc2ccccc2)cc1`, the EC50 is above 200 µM and the IC50 was above 200 µM.
As for `Cn1c(-c2cccc(N)c2)[n+](C)c2ccccc21`, the EC50 was above 200 µM and the IC50 was 126 µM.
For `C/C=C/[C@H](O[Si](C)(C)C(C)(C)C)[C@@H](O)/C=C/C(=O)OCC`, the EC50 was above 200 µM and the IC50 stood at 28.8 µM.
Regarding `COC1(OC)CC(CO)(COc2cc(Cl)nc(N)n2)C1`, the EC50 was above 200 µM and the IC50 was above 200 µM.
For the compound `O=C(O)CCCC[P+](c1ccccc1)(c1ccccc1)c1ccccc1`, the EC50 was above 200 µM and the IC50 was above 200 µM.
As for `C[C@@H](NS(=O)(=O)c1ccc(NC(=O)c2ccccc2)cc1)C(=O)O`, the outcome was inactive.
As to `O=C1NC2c3ccccc3CCC12` (stereo unspecified), the EC50 was above 1450 µM and the IC50 is above 1450 µM.
For `CN(CC1(CO)CCC1)c1cc(Cl)nc(N)n1`, the EC50 was above 200 µM and the IC50 was 53.7 µM.
For `NC(Cc1c[nH]c2ccccc12)P(=O)(O)O` (stereo unspecified) the same measures were above 200 µM and above 200 µM.
As to `CSC1=NN(c2ccccc2)C(=O)C1=C(SC)SC`, the EC50 was above 200 µM and the IC50 is 25.1 µM.
`O=c1c2ccccc2oc2c1ccc1ncccc12`: the EC50 is above 200 µM and the IC50 was determined as 6.61 µM.
As for `N#CC1=C(O)NC(O)=C(C#N)C1c1ccc(C2C(C#N)=C(O)NC(O)=C2C#N)cc1`, the EC50 was above 631 µM and the concentration for half-maximal inhibition (IC50) is 35.5 µM.
In the case of `CC1=C[C@H]2C3=C(OC(C)(C)[C@H]2CC1)C(=O)c1c(cc(O)c(C)c1O)C3=O`, the EC50 was above 182 µM and the IC50 came to 34.7 µM.
As to `O=C(Cn1c2c(c3ccccc31)CCCC2)N1CCCCC1`, the EC50 is above 200 µM and the IC50 was above 200 µM.
In the case of `CC1=C(OCCCl)C2CC1C1C(=O)N(c3ccccc3)C(=O)C21` (stereo unspecified), the EC50 is above 389 µM and the IC50 was above 389 µM.
On to `CC(CO)NNC(C)CO` (stereo unspecified), for which the EC50 is above 200 µM and the 50% inhibitory concentration (IC50) is above 200 µM.
For the compound `O=C(/C=C/c1cccc([N+](=O)[O-])c1)c1ccccc1`, the EC50 was above 20.4 µM and the IC50 was found to be 11.5 µM.
`O=C(O)CCCCC1CCSS1` (stereo unspecified): the EC50 is 186 µM and the IC50 is above 200 µM.
On to `N#Cc1c(=O)n(O)c2ccccc2[n+]1[O-]`, for which the EC50 is above 200 µM and the IC50 was above 200 µM.
With `COc1ccc(O)c2c(=O)c3cc(O)ccc3oc12`, the EC50 was above 200 µM and the IC50 was found to be 30.2 µM.
As to `N#Cc1c(N=C/C=C/c2ccccc2)c(C(=O)Nc2ccccc2)n2c1CCCC2`, the EC50 is above 200 µM and the IC50 is above 200 µM.
As to `CC(C)c1cccc(C(C)C)c1NC(=O)C(=O)Cc1nc2ccc([N+](=O)[O-])cc2[nH]c1=O`, the EC50 is above 490 µM and the IC50 was 89.1 µM.
As for `CC(C)(C)[Si](C)(C)OC[C@H]1O[C@@H](n2ccc(=O)[nH]c2=O)C(O[Si](C)(C)C(C)(C)C)[C@]12CCN(O)CO2` (stereo partly specified), the EC50 is above 200 µM and the IC50 was found to be 11.5 µM.
For `COc1ccc2[nH]c3c(C)c4ccnc(NCCCN(C)CCCN)c4c(C)c3c2c1`, the EC50 is above 1 µM and the IC50 was determined as 0.38 µM.
Turning to `Cc1nc(-c2ccc([N+](=O)[O-])cc2)cn2c1nc1ccccc12`, the concentration giving a half-maximal response (EC50) was 457 µM and the half-inhibitory concentration (IC50) stood at 501 µM.
On to `CN(C)CCN1C(=O)c2c(c3cccn3c3c2cnn3-c2ccccc2)C1=O`, for which the EC50 is above 200 µM and the concentration for half-maximal inhibition (IC50) is above 200 µM.
For the compound `O=[N+]([O-])c1ccc(C2NC3=C(CCCC3)N2)cc1`, the EC50 was above 40.7 µM and the IC50 was above 40.7 µM.
Take `COc1nc2ccc(COc3ccc(C(=O)O)cc3)cc2nc1OC`: the EC50 was above 200 µM and the half-maximal inhibitory concentration (IC50) worked out at 132 µM.
On the same counts, the results for `O=[N+]([O-])c1cc(/C=N\NS(=O)(=O)c2ccc(Cl)cc2)c(O)c([N+](=O)[O-])c1` are above 617 µM and 34.7 µM.
For `O=C1CSC(=S)N1c1ccccc1` the same measures were above 240 µM and 178 µM.
As for `CCc1n[nH]c(=O)n1/N=C/c1ccc(C)cc1`, the EC50 was above 200 µM and the IC50 came out at 158 µM.
As to `NC1CNC(=O)c2cscc21` (stereo unspecified), the EC50 is above 200 µM and the IC50 is above 200 µM.
Take `O=C(/C=C/c1ccc(O)cc1)OC[C@@H](O)COC1OC(CO)C(O)C(O)C1O` (stereo partly specified): the result was inactive.
As for `O=C1c2ccccc2C(=O)c2sc(Nc3ccc([N+](=O)[O-])cc3)nc21`, the EC50 is above 10.7 µM and the IC50 is above 10.7 µM.
For the compound `CCCc1cc(=O)[nH]c2c3c(c4c(c12)OC(C)(C)C=C4)O[C@H](C)[C@@H](C)[C@@H]3O`, the EC50 is 0.12 µM and the IC50 was found to be 2 µM.
For the compound `CCc1ccc([OH2+])c(C(=O)[O-])c1.CCc1ccc([OH2+])c(C(=O)[O-])c1.CCc1ccc([OH2+])c(C(=O)[O-])c1.CCc1ccc([OH2+])c(C(=O)[O-])c1.[Cu+2].[Cu+2]`, the EC50 is above 200 µM and the IC50 was 23.4 µM.
Take `COC(=O)[C@]1(C)CCC[C@]2(C)c3ccc(C(C)C)cc3C(=O)C[C@@H]12`: the EC50 is above 200 µM and the IC50 was determined as 31.6 µM.
With `Cc1ccc(S(=O)OCC23CC4CC(CC(C4)C2)C3)cc1` (stereo unspecified), the outcome was inactive.
In the case of `CCCCCCCCCCCC(=O)OCC1OC(n2cc(F)c(=O)[nH]c2=O)C(N)C(OC(=O)CCCCCCCCCCC)C1O` (stereo unspecified), the EC50 is above 3.02 µM and the IC50 is above 3.02 µM.
As for `COc1ccc2c(c1)C(=O)c1ccc(OC)cc1C2=S`, the outcome was inactive.
On to `CC1(C)OC(=O)CC(=O)O1`, for which the EC50 is above 200 µM and the half-maximal inhibitory concentration (IC50) was above 200 µM.
As to `CC(=O)Oc1ccc2cc(Oc3ccccc3)c(=O)oc2c1`, the EC50 was above 200 µM and the IC50 came out at 85.1 µM.
On the same counts, the results for `C=C1OC(c2ccccc2NC)=NC12CCCCC2` are above 200 µM and 115 µM.
In the case of `Cc1ccc(Cc2cc(N3CCN(c4cccc(Cl)c4)CC3)nnc2C)cc1`, the EC50 is above 100 µM and the IC50 was determined as 16.6 µM.
For `CCCCc1c2c(nc3c1CCCC3=O)CCCC2`, the EC50 is above 195 µM and the IC50 stood at 28.8 µM.
`O=S(=O)(O)c1cc(N=Nc2cc(S(=O)(=O)O)c3cccnc3c2O)ccc1/C=C/c1ccc(N=Nc2cc(S(=O)(=O)O)c3cccnc3c2O)cc1S(=O)(=O)O.[Cu+2].[Na+]`: the half-maximal effective concentration (EC50) is above 10.7 µM and the IC50 came out at 1.2 µM.
For the compound `CCOC(=O)NC(=O)c1cn(CCN2CCNCC2)c(=O)[nH]c1=O`, the outcome was inactive.
Take `CCCCNc1nc(NC2OCC(OC(C)=O)C(OC(C)=O)C2OC(C)=O)c(N=O)c(=O)n1C` (stereo unspecified): the EC50 is above 200 µM and the IC50 was above 200 µM.
As for `NC(N)=NN=C1CCCCC1`, the EC50 was above 200 µM and the IC50 was above 200 µM.
`CCON1CC(C(=O)OC)=C(O)C1=O`: the EC50 was above 200 µM and the IC50 was above 200 µM.
With `C=C[C@H](C)[C@H](O)c1c(O)c2c(c3c(CCC)cc(=O)oc13)OC(C)(C)C=C2`, the EC50 was above 200 µM and the 50% inhibitory concentration (IC50) was 49 µM.
`CCC12OC(=O)C34CC(C(=O)N(CCc5c3[nH]c3ccccc53)C41)C2I` (stereo unspecified): the result was inactive.
In the case of `COC(=S)NP(=O)(NC(=S)OC)NC(=S)OC`, the EC50 is above 200 µM and the IC50 is above 200 µM.
For `CC1(CO)C2CC3CN(C(=O)c4ccccc4)C(C2)[C@]31C` (stereo partly specified), the result was inactive.
In the case of `NC(=Nc1ccc(O)cc1)S(=O)(=O)O`, the EC50 is 63.1 µM and the IC50 is 97.7 µM.
For `O=S(=O)(c1ccc(Cl)cc1)c1ccccc1C1=NCCN1` the same measures were above 200 µM and above 200 µM.
`CCCCNC(=O)Sc1ccccc1C(=O)N[C@H](C)C(N)=O` registered an EC50 of 1.12 µM and an IC50 of 112 µM.
As to `CN(C)Cc1cc(C(=O)/C=C/c2ccc(Cl)c(Cl)c2)cc(CN(C)C)c1O`, the EC50 was above 200 µM and the IC50 worked out at 2.75 µM.
For the compound `O=C1N(c2ccccc2)N=C(c2ccccc2)C12CC2`, the EC50 was above 200 µM and the IC50 came out at 107 µM.
With `O=C(OCCN1CCCC12CCCCC2)C(c1ccccc1)C1C=CCC1` (stereo unspecified), the EC50 was above 200 µM and the IC50 came to 24.5 µM.
For `COc1cccc2c1CCc1cc3c(N)nc(N)nc3nc1-2`, the EC50 was above 200 µM and the IC50 was 5.25 µM.
Regarding `COC(=O)/C=C(/C(=O)OC)C1(C)c2cc(C(=O)OC)c(C(=O)OC)c(N)c2C(=N)N1c1ccccc1` (stereo unspecified), the outcome was inactive.
As to `Cc1cn(C2CC(N=[N+]=[N-])C(COC(=O)CCCCCCCCCCBr)O2)c(=O)[nH]c1=O` (stereo unspecified), the outcome was active and the IC50 came out at 110 µM.
In the case of `N#CC12CNCC1CN=N2` (stereo unspecified), the EC50 is above 200 µM and the IC50 was above 200 µM.
In the case of `CN(C)CCSc1nccc(-c2ccc(-c3ccnc(SCCN(C)C)n3)s2)n1`, the EC50 was above 102 µM and the IC50 stood at 0.182 µM.
`COC1=CC2(c3ccccc3)C(=CC1=O)CCN2C(=O)c1ccccc1` (stereo unspecified): the outcome was inactive.
As for `Nc1nc(Cl)cc(NCCCCCCCCCCNc2cc(Cl)nc(N)n2)n1`, the result was inactive.
As for `COc1cccc2c(Nc3ccc(S(=O)(=O)N=C(N)N)cc3)c3ccc([N+](=O)[O-])cc3nc12`, the EC50 was above 200 µM and the IC50 amounted to 11 µM.
As for `CC(C)(C)OC(=O)N1N=NC2C3OC(CC3=O)C21` (stereo unspecified), the EC50 was above 708 µM and the IC50 turned out to be 355 µM.
As to `CC(=O)OCC(OC(C)=O)C(OC(C)=O)C(OC(C)=O)C(/C=N\Nc1nc2ccccc2c(=O)[nH]1)OC(C)=O` (stereo unspecified), the EC50 is above 200 µM and the IC50 is above 200 µM.
For the compound `COCC1=C(NNC(=O)c2ccncc2)[C@@]2(C)C(=CC1=O)Oc1c(C(C)=O)c(O)c(C)c(O)c12`, the EC50 was above 200 µM and the IC50 worked out at 47.9 µM.

For orientation: EC50 means the concentration needed to bring the measured effect to its halfway point. As usually defined, the IC50 is the concentration that inhibits the measured activity by half. A low value points to inhibition by little substance.
